In paper PMC10222686, “Synthesis and Molecular Docking Studies of Alkoxy- and Imidazole-Substituted Xanthones as α-Amylase and α-Glucosidase Inhibitors” (Molecules, 2023):

Columns and labels:
[1] = DPPH radical scavenging assay; conditions: mean ± SD, n = 4
Experimental: The scavenging of free radicals by the synthesized compounds was assessed based on the previously reported DPPH radical assay, with slight modifications. The reaction mixture consisted of 50 µL of compound in DMSO at various concentrations (from 2.5 mM to 0.2 mM) and 150 µL of DPPH solution at 133.33 µM in absolute ethanol. The reaction components were added at a ratio of 1:3 (v/v). The mixture was incubated at 37 °C for 30 min before absorbance was read at 517 nm using a microplate reader (Epoch, BioTek®). Butylhydroxytoulene (BHT) served as the positive control. Scavenging capacity (%) is expressed as the percentage decrease in DPPH. SC% = [(Acontrol − Atest)/Acontrol] × 100 where Acontrol is absorbance of the DPPH solution (control) and Atest is the absorbance of the solution of DPPH and one of the compounds.

α-glucosidase = assay: α-Glucosidase inhibition assay (p-NPG substrate); format: biochemical, Saccharomyces cerevisiae; conditions: mean ± SD, n = 4
Experimental: The inhibitory activity of the compounds on α-glucosidase inhibition was quantified according to the method described by Salehi et al., with slight modifications [64]. A reaction was prepared by mixing 20 µL α-glucosidase solution (0.5 unit/mL), 120 µL 0.1 M phosphate buffer (pH 6.9), and 10 µL of the samples at concentrations from 400 µM to 4.0 µM. The solution was incubated in a 96-well microplate at 37 °C for 15 min. The enzymatic reaction was initiated by adding 20 µL of 5 mM p-NPG solution to 0.1 M phosphate buffer (pH 6.9), followed by incubation at 37 °C for 15 min. The reaction was stopped by adding 80 µL of 0.2 M sodium carbonate solution, and absorbance was read at 405 nm in a microplate reader (Epoch®, BioTek Instrument, Winooski, EUA). The reaction system without any test compounds was used as control, whereas the system without α-glucosidase served as blank for correcting background absorbance. The rate of α-glucosidase inhibition exerted by each sample was calculated with Equation (1):(1) % inhibition=Control absorbance−sample absorbance/Control absorbance×100
(§1) All measurements were performed in quadruplicate and the values are expressed as the mean ± standard deviation.

α-amylase = molecular target: T1, α-amylase (Sus scrofa, UniProt P00690); assay: α-Amylase inhibition assay (starch/DNS); format: biochemical, porcine; conditions: mean ± SD, n = 4; for inhibition at 100 µM: NI = no inhibition; for IC50: compounds precipitate at 200 µM;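 on all read-outs here: reducing sugar measured by DNS colour at 540 nm, inhibition relative to enzyme reaction lacking test compound, blank without enzyme subtracted for background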
T1 construct: purchased Sigma-Aldrich; host or cells: porcine pancreas
T1 sequence (P00690 16-511): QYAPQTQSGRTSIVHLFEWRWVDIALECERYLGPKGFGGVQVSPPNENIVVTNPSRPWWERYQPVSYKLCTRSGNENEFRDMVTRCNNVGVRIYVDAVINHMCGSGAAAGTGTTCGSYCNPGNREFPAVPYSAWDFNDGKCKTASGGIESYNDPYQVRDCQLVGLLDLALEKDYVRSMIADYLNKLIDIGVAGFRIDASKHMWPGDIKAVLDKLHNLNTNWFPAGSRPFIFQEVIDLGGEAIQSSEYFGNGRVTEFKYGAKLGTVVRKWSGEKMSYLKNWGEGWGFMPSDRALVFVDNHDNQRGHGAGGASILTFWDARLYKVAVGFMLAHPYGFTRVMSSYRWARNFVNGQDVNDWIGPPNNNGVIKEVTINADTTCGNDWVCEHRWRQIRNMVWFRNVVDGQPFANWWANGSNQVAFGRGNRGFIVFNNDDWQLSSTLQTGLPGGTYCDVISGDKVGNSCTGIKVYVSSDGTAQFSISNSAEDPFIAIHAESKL
Experimental: α-Amylase inhibitory activity was quantified according to the method developed by Chokki et al., with some modifications [65]. […] Finally, 100 µL of 3,5-dinitrosalicylic acid (DNS) was added and heated at 100 °C for 20 min, and absorbance was then read at 540 nm in a microplate reader (Epoch, BioTek®). The reaction system without any test compound was used as the control, and the system without α-amylase served as a blank for correcting background absorbance. The percentage of α-amylase inhibition was calculated for each sample with Equation (2):(2) % inhibition=Control absorbance−sample absorbance/Control absorbance×100
as §1

Row | SMILES | % DPPH Scavenging Activity (2.5 mM) [1] | α-Glucosidase Inhibition (%) at 400 µM (α-glucosidase) | IC50 (α-glucosidase) | melting point | inhibition at 100 µM (α-amylase) | IC50 (α-amylase)
1 | C=CCc1c(OCCCCn2ccnc2-c2ccc(Cl)cc2)c(OC)cc2oc3ccccc3c(=O)c12 [Compound 10f, 1-Allyl-2-(4-(2-(4-chlorophenyl)-1H-imidazol-1-yl)butoxy)-3-methoxy-9H-xanthen-9-one] | 11.2 ± 1.02 ^F,G % | 99.4 ± 0.51% | 145.2 ± 0.17 µM | 90 to 92 °C | 93.3 ± 0.12% | 8.7 ± 0.06 µM
2 | COc1cc2oc3ccccc3c(=O)c2cc1OCC(O)Cn1ccnc1-c1ccccc1 (centres unmarked) [Compound 12b, 2-(2-Hydroxy-3-(2-phenyl-1H-imidazol-1-yl)propoxy)-3-methoxy-9H-xanthen-9-one] | 16.3 ± 1.45 ^D,E % | 84.9 ± 0.57% | 112.8 ± 0.12 µM | 157 to 159 °C | 8.7 ± 0.81% | > 200 µM
3 | COc1cc2oc3ccccc3c(=O)c2cc1O [Compound 1, 2-Hydroxy-3-methoxy-9H-xanthen-9-one] | – | 26.5 ± 0.81% | > 400 µM | – | 98.7 ± 0.11% | 26.5 ± 0.01 µM
4 | COc1cc2oc3ccccc3c(=O)c2c2c1OC(C)(C)C=C2 [Compound 8, 5-Methoxy-3,3-dimethylpyrano[3,2-a]xanthen-12(3H)-one] | 1.9 ± 0.73 ^H,I % | 38.3 ± 0.04% | > 400 µM | – | < 0% | –
5 | C=CCc1c(OCCCCn2ccnc2)c(OC)cc2oc3ccccc3c(=O)c12 [Compound 10d, 2-(4-(1H-Imidazol-1-yl)butoxy)-1-allyl-3-methoxy-9H-xanthen-9-one] | 5.1 ± 0.08 ^H % | 2.5 ± 0.01% | > 400 µM | – | < 0% | –
6 | Cc1cc(C(C)(C)C)c(O)c(C(C)(C)C)c1 [BHT, butylhydroxytoluene, reference compound] | 85.2 ± 3.33 ^A‡ % | – | – | – | – | –
7 | COC(=O)/C(=C/N(C)C)Oc1cc2c(=O)c3ccccc3oc2cc1OC [Compound 5, Methyl (Z)-3-(dimethylamino)-2-((3-methoxy-9-oxo-9H-xanthen-2-yl)oxy)acrylate] | 13.9 ± 1.14 ^E,F % | 15.2 ± 0.16% | > 400 µM | – | < 0% | –
8 | C=CCc1c(O)c(OC)cc2oc3ccccc3c(=O)c12 [Compound 7, 1-Allyl-2-hydroxy-3-methoxy-9H-xanthen-9-one] | 45.9 ± 2.89 ^B† % | 75.5 ± 0.50% | 196.4 ± 0.07 µM | – | 7.8 ± 0.1% | > 200 µM
9 | C=CCc1c(OCC(=O)c2ccc(Cl)cc2)c(OC)cc2oc3ccccc3c(=O)c12 [Compound 6e, 1-Allyl-2-(2-(4-chlorophenyl)-2-oxoethoxy)-3-methoxy-9H-xanthen-9-one] | 10.4 ± 0.83 ^F,G % | 98.6 ± 0.90% | 12.8 ± 0.01 µM | – | 60.3 ± 0.1% | 68.1 ± 0.04 µM
10 | COc1cc2oc3ccccc3c(=O)c2cc1OCC(C)=O [Compound 6b, 3-Methoxy-2-(2-oxopropoxy)-9H-xanthen-9-one] | 11.8 ± 1.07 ^F,G % | 9.3 ± 0.1% | > 400 µM | 144 to 145 °C | – | –
11 | C[C@H]1O[C@H](O[C@H]2[C@H](O)[C@@H](O)[C@@H](O[C@H]3[C@H](O)[C@@H](O)C(O)O[C@@H]3CO)O[C@@H]2CO)[C@H](O)[C@@H](O)[C@@H]1N[C@H]1C=C(CO)[C@@H](O)[C@H](O)[C@H]1O (some centres unmarked) [Acarbose, acarbose, reference compound] | – | 63.18 ± 0.7% | – | – | 99.3 ± 0.06% | –
12 | COc1cc2oc3ccccc3c(=O)c2cc1OCCCCBr [Compound 9a, 2-(4-Bromobutoxy)-3-methoxy-9H-xanthen-9-one] | 19.5 ± 1.22 ^D % | 97.8 ± 0.3% | 40 ± 0.018 µM | – | 62.9 ± 0.2% | 73.5 ± 0.04 µM
